Test results taken from ChEMBL document CHEMBL1129224, “Rapid decomposition of peroxynitrite by manganese porphyrin-antioxidant redox couples” (Bioorg Med Chem Lett, 1997).

Legend:
Format in all cases: ADME
[1] = The compound was evaluated for the rate of oxoMn (IV) reduction
[2] = The compound was evaluated for the apparent first-order rate of reaction of ONOO- with antioxidant in presence of catalyst
[3] = The compound was evaluated for the apparent first-order rate of reaction of ONOO- with antioxidant

SMILES | kred [1] | k cat [2] | kONOO- [3]
O=C1O[C@H]([C@@H](O)CO)C(O)=C1O [ASCORBIC ACID] | 54000000 M⁻¹ s⁻¹ | 2200000 M⁻¹ s⁻¹ | 88 M⁻¹ s⁻¹
Cc1c(C)c2c(c(C)c1O)CCC(C)(C(=O)O)O2 (centres undefined) [TROLOX] | 7000000 M⁻¹ s⁻¹ | 1100000 M⁻¹ s⁻¹ | 33 M⁻¹ s⁻¹
N[C@@H](CCC(=O)N[C@@H](CS)C(=O)NCC(=O)O)C(=O)O [GLUTATHIONE] | 130000 M⁻¹ s⁻¹ | 3200000 M⁻¹ s⁻¹ | 580 M⁻¹ s⁻¹
